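Compound exposure: 48 hours, 5 concentrations, 96-well plates. TGI: concentration producing complete growth inhibition.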
How the values were obtained:
Assay in all cases: inhibition of tumour cell growth, NCI panel, 48 h
HOP-92 NSCLC = system: HOP-92 NSCLC
OVCAR-4 ovarian = system: OVCAR-4 ovarian
SR leukemia = system: SR leukemia
MDA-MB-435 = system: MDA-MB-435
MDA-MB-231 breast = system: MDA-MB-231 breast
MDA-N = system: MDA-N
HCT-116 colon = system: HCT-116 colon
SW-620 colon = system: SW-620 colon
TK-10 renal = system: TK-10 renal
NCI-H226 lung = system: NCI-H226 lung
A498 renal = system: A498 renal
LOX IMVI melanoma = system: LOX IMVI melanoma
IGROV1 ovarian = system: IGROV1 ovarian
SK-MEL-28 melanoma = system: SK-MEL-28 melanoma
786-0 renal = system: 786-0 renal
OVCAR-3 ovarian = system: OVCAR-3 ovarian
EKVX NSCLC = system: EKVX NSCLC
PC-3 prostate = system: PC-3 prostate
K-562 leukemia = system: K-562 leukemia
HCT-15 colon = system: HCT-15 colon
HL-60(TB) leukemia = system: HL-60(TB) leukemia
UO-31 renal = system: UO-31 renal
UACC-257 melanoma = system: UACC-257 melanoma
CAKI-1 renal = system: CAKI-1 renal
BT-549 breast = system: BT-549 breast
MCF7 breast = system: MCF7 breast
KM12 colon = system: KM12 colon
RPMI-8226 leukemia = system: RPMI-8226 leukemia
M14 melanoma = system: M14 melanoma
T-47D breast = system: T-47D breast
RXF 393 renal = system: RXF 393 renal
NCI-H460 lung = system: NCI-H460 lung
SNB-19 CNS = system: SNB-19 CNS
SK-MEL-2 melanoma = system: SK-MEL-2 melanoma
OVCAR-5 ovarian = system: OVCAR-5 ovarian
A549 NSCLC = system: A549 NSCLC
NCI-H23 lung = system: NCI-H23 lung
SN12C renal = system: SN12C renal
MOLT-4 leukemia = system: MOLT-4 leukemia
SK-OV-3 ovarian = system: SK-OV-3 ovarian
MALME-3M melanoma = system: MALME-3M melanoma
U251 CNS = system: U251 CNS
NCI-H522 lung = system: NCI-H522 lung
SNB-75 CNS = system: SNB-75 CNS
DU-145 prostate = system: DU-145 prostate
NCI/ADR-RES ovarian = system: NCI/ADR-RES ovarian
SK-MEL-5 melanoma = system: SK-MEL-5 melanoma
HS 578T breast = system: HS 578T breast
SF-539 CNS = system: SF-539 CNS
COLO 205 colon = system: COLO 205 colon
SF-295 CNS = system: SF-295 CNS
HOP-62 NSCLC = system: HOP-62 NSCLC
CCRF-CEM leukemia = system: CCRF-CEM leukemia
UACC-62 melanoma = system: UACC-62 melanoma
OVCAR-8 ovarian = system: OVCAR-8 ovarian
ACHN renal = system: ACHN renal
HCC-2998 colon = system: HCC-2998 colon
SF-268 CNS = system: SF-268 CNS
HT29 colon = system: HT29 colon

[N-]=[N+]=Nc1ccc2c(c1)Sc1ccccc1N2CCCCN1CCN(Cc2ccc(C(=O)c3ccccc3)cc2)CC1
TGI (HOP-92 NSCLC): 11.7 µM
TGI (OVCAR-4 ovarian): > 100 µM
TGI (SR leukemia): > 24.3 µM
TGI (MDA-MB-435): > 100 µM
TGI (MDA-MB-231 breast): 33 µM
TGI (MDA-N): > 100 µM
TGI (HCT-116 colon): > 56.8 µM
TGI (SW-620 colon): > 100 µM
TGI (TK-10 renal): > 96.2 µM
TGI (NCI-H226 lung): > 100 µM
TGI (A498 renal): > 29 µM
TGI (LOX IMVI melanoma): 3.56 µM
TGI (IGROV1 ovarian): > 100 µM
TGI (SK-MEL-28 melanoma): 3.57 µM
TGI (786-0 renal): > 100 µM
TGI (OVCAR-3 ovarian): > 100 µM
TGI (EKVX NSCLC): > 100 µM
TGI (PC-3 prostate): > 100 µM
TGI (K-562 leukemia): > 100 µM
TGI (HCT-15 colon): > 100 µM
TGI (HL-60(TB) leukemia): 10.1 µM
TGI (UO-31 renal): > 27.9 µM
TGI (UACC-257 melanoma): 4.41 µM
TGI (CAKI-1 renal): > 65.4 µM
TGI (BT-549 breast): > 66.1 µM
TGI (MCF7 breast): > 23.3 µM
TGI (KM12 colon): > 100 µM
TGI (RPMI-8226 leukemia): > 100 µM
TGI (M14 melanoma): 3.95 µM
TGI (T-47D breast): 22.7 µM
TGI (RXF 393 renal): 5.37 µM
TGI (NCI-H460 lung): > 100 µM
TGI (SNB-19 CNS): > 100 µM
TGI (SK-MEL-2 melanoma): 6.86 µM
TGI (OVCAR-5 ovarian): > 100 µM
TGI (A549 NSCLC): > 100 µM
TGI (NCI-H23 lung): > 80.8 µM
TGI (SN12C renal): > 100 µM
TGI (MOLT-4 leukemia): > 100 µM
TGI (SK-OV-3 ovarian): > 100 µM
TGI (MALME-3M melanoma): 4.28 µM
TGI (U251 CNS): > 100 µM
TGI (NCI-H522 lung): 4.43 µM
TGI (SNB-75 CNS): > 100 µM
TGI (DU-145 prostate): > 100 µM
TGI (NCI/ADR-RES ovarian): > 100 µM
TGI (SK-MEL-5 melanoma): 4.09 µM
TGI (HS 578T breast): > 100 µM
TGI (SF-539 CNS): 23.1 µM
TGI (COLO 205 colon): 3.55 µM
TGI (SF-295 CNS): > 100 µM
TGI (HOP-62 NSCLC): > 100 µM
TGI (CCRF-CEM leukemia): > 100 µM
TGI (UACC-62 melanoma): 6.1 µM
TGI (OVCAR-8 ovarian): > 36.4 µM
TGI (ACHN renal): > 100 µM
TGI (HCC-2998 colon): 3.86 µM
TGI (SF-268 CNS): > 100 µM
TGI (HT29 colon): 3.53 µM

— PubChem BioAssay (NCI)
